The source of these data is PubChem BioAssay (NCI).

Molecules are shown by their SMILES. “And” between values parts separate entries of the source, which are not always exact repeats. Equal entries are not always repeated.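 Results reflect a 48-hour exposure of cells in 96-well plates to compound at five concentrations. TGI is the concentration that stops growth completely.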 Bounds are passed on as bounds.

Among the test systems are SF-268 CNS; UACC-257 melanoma; EKVX NSCLC; ACHN renal; SK-MEL-2 melanoma; OVCAR-3 ovarian; OVCAR-8 ovarian; LOX IMVI melanoma; SK-MEL-28 melanoma; UO-31 renal; NCI-H460 lung; OVCAR-4 ovarian; SNB-75 CNS; IGROV1 ovarian; CAKI-1 renal; DU-145 prostate; SF-539 CNS; NCI-H23 lung; HL-60(TB) leukemia.
Holding throughout (assay): growth of human tumour cells (NCI), 48 h

On to `Cc1ccc(C)n1-n1c(Cc2ccccc2)n[nH]c1=O`, for which the TGI in the test on SF-268 CNS, with UACC-257 melanoma, in the test with EKVX NSCLC, in the test with ACHN renal, in the test with SK-MEL-2 melanoma and with OVCAR-3 ovarian was over 100 µM each time. The TGI with OVCAR-8 ovarian, in the test on LOX IMVI melanoma, in the test with SK-MEL-28 melanoma, in the test with UO-31 renal, in the test on NCI-H460 lung and in the test with OVCAR-4 ovarian was over 100 µM each time. Further, the TGI in the test with SNB-75 CNS, in the test on IGROV1 ovarian, with CAKI-1 renal and with DU-145 prostate was over 100 µM throughout.

For the compound `O=C(CC(C(=O)c1cccs1)c1ccsc1)c1cccs1` (stereo not drawn), the TGI with SF-268 CNS was over 100 µM; in the test on UACC-257 melanoma, over 100 µM; in the test with EKVX NSCLC, 76.8 µM; in the test on SF-539 CNS it was over 100 µM; in the test with ACHN renal, over 100 µM; in the test on OVCAR-3 ovarian, over 100 µM. Moreover, the TGI in the test on NCI-H23 lung, in the test on OVCAR-8 ovarian, with SK-MEL-28 melanoma, in the test on UO-31 renal, in the test with NCI-H460 lung and in the test with OVCAR-4 ovarian was over 100 µM in each case. Further, the TGI with SNB-75 CNS, with IGROV1 ovarian, in the test on CAKI-1 renal and in the test with DU-145 prostate was over 100 µM in each case.

Take `O=C(O)CN1CCN2CCOCCOCCN(CC1)CCN(CC(=O)O)CC2`: the TGI in the test with UACC-257 melanoma, in the test on EKVX NSCLC, with SF-539 CNS, with ACHN renal, in the test on SK-MEL-2 melanoma and with OVCAR-3 ovarian was over 100 µM each time. For the same compound, the TGI in the test on OVCAR-8 ovarian, in the test on LOX IMVI melanoma, in the test on SK-MEL-28 melanoma, in the test with UO-31 renal, in the test with NCI-H460 lung and with OVCAR-4 ovarian was over 100 µM in each case. Further, the TGI with SNB-75 CNS, in the test on IGROV1 ovarian, in the test on CAKI-1 renal and in the test on DU-145 prostate was over 100 µM each time.

For the compound `CC1(C)O[C@@H]2[C@@H](COC(=O)c3ccccc3)C[C@@H](C#N)[C@@H]2O1`, the TGI with SF-268 CNS, in the test on SF-539 CNS, in the test with ACHN renal, in the test on OVCAR-3 ovarian, in the test on NCI-H23 lung and in the test with OVCAR-8 ovarian was over 100 µM throughout. Also, the TGI in the test with LOX IMVI melanoma, in the test with SK-MEL-28 melanoma, with UO-31 renal, with NCI-H460 lung, in the test on OVCAR-4 ovarian and in the test on SNB-75 CNS was over 100 µM in each case. Besides, the TGI in the test with IGROV1 ovarian, in the test with HL-60(TB) leukemia and in the test with DU-145 prostate was over 100 µM in each case.

Regarding `Cn1nc2ccc3nccc(N4CCN(CCO)CC4)c3c2n1`, the TGI in the test on SF-268 CNS, with UACC-257 melanoma, with ACHN renal, in the test on SK-MEL-2 melanoma, in the test on OVCAR-3 ovarian and in the test with NCI-H23 lung was over 100 µM each time. For the same compound, the TGI in the test on OVCAR-8 ovarian, with SK-MEL-28 melanoma, with UO-31 renal, in the test with NCI-H460 lung, in the test on OVCAR-4 ovarian and in the test on SNB-75 CNS was over 100 µM in each case. Besides, the TGI in the test on IGROV1 ovarian and with DU-145 prostate was over 100 µM each time.

As to `CC(=O)OCC(OC(C)=O)C(OC(C)=O)C(OC(C)=O)C(C=NN(C(C)=O)S(=O)(=O)c1ccc(/C=C2\NC(=O)N(C)C2=O)cc1)OC(C)=O` (stereo not drawn), the TGI is over 100 µM with SF-268 CNS; over 100 µM with UACC-257 melanoma; 78.5 µM and > 100 µM with EKVX NSCLC; 56.5 µM in the test with SF-539 CNS; over 100 µM in the test with ACHN renal; 58 µM and > 100 µM in the test on SK-MEL-2 melanoma. Moreover, the TGI is over 100 µM with OVCAR-3 ovarian; over 100 µM in the test with NCI-H23 lung; > 100 µM and 86.7 µM in the test with OVCAR-8 ovarian; 33 µM and 66 µM with LOX IMVI melanoma; over 100 µM in the test on UO-31 renal; 50.3 µM and 56.5 µM in the test with NCI-H460 lung. Moreover, the TGI is 95.7 µM and > 100 µM in the test with OVCAR-4 ovarian; over 100 µM in the test on SNB-75 CNS; 75.2 µM and > 100 µM with IGROV1 ovarian; over 100 µM with CAKI-1 renal; over 100 µM in the test with DU-145 prostate.

In the case of `CC(=O)O[C@H]1C(=O)[C@@]2(C)[C@H]([C@H](OC(=O)c3cccc(C(F)(F)F)c3)[C@]3(O)C[C@H](OC(=O)[C@H](O)[C@@H](NC(=O)c4ccccc4)c4ccccc4)C(C)=C1C3(C)C)[C@]1(OC(C)=O)CO[C@@H]1C[C@@H]2O`, the TGI in the test with SF-268 CNS is over 25 µM; in the test with UACC-257 melanoma, 8.27 µM; with EKVX NSCLC, over 25 µM; with SF-539 CNS, 0.0105 µM; in the test with ACHN renal, over 9.46 µM; in the test with OVCAR-3 ovarian, 8.03 µM. The TGI is over 25 µM with NCI-H23 lung; 7.61 µM with OVCAR-8 ovarian; over 25 µM in the test on SK-MEL-28 melanoma; over 15.9 µM in the test on UO-31 renal; over 10.6 µM with NCI-H460 lung; over 18.4 µM in the test on OVCAR-4 ovarian. Further, the TGI was over 23 µM in the test on IGROV1 ovarian, over 25 µM with CAKI-1 renal and under 0.0025 µM in the test with HL-60(TB) leukemia.

Turning to `COc1ccc(C2CC(c3ccccc3)=Nc3c(-c4ccccc4)nnn32)cc1` (stereo not drawn), the TGI in the test with SF-268 CNS, with UACC-257 melanoma, with SF-539 CNS, in the test on ACHN renal, in the test on SK-MEL-2 melanoma and in the test on OVCAR-3 ovarian was over 100 µM throughout. In addition, the TGI in the test on NCI-H23 lung, with OVCAR-8 ovarian, with LOX IMVI melanoma, with UO-31 renal, in the test with NCI-H460 lung and in the test with IGROV1 ovarian was over 100 µM throughout. The TGI with CAKI-1 renal, with HL-60(TB) leukemia and with DU-145 prostate was over 100 µM each time.

As to `O=C(COc1ccc(OCC(=O)N2C(=O)CSC2=Nc2ccccc2)cc1)N1C(=O)CSC1=Nc1ccccc1`, the TGI in the test on SF-268 CNS, in the test on UACC-257 melanoma, in the test with EKVX NSCLC, in the test on ACHN renal, in the test with SK-MEL-2 melanoma and with NCI-H23 lung was over 100 µM in each case. In addition, the TGI in the test with SK-MEL-28 melanoma is over 100 µM; in the test with UO-31 renal it was over 100 µM; in the test on NCI-H460 lung it was over 100 µM; in the test on OVCAR-4 ovarian, over 100 µM; with SNB-75 CNS, over 100 µM; with IGROV1 ovarian, 82.8 µM. Further, the TGI in the test with CAKI-1 renal was 47.7 µM; in the test with DU-145 prostate it was over 100 µM.
